In one experiment the target is T1, rat P2X3 receptor (Rattus norvegicus, UniProt P49654).
T1 construct: expressed in transfected cells; host or cells: CHO-K1
T1 sequence (P49654 1-397): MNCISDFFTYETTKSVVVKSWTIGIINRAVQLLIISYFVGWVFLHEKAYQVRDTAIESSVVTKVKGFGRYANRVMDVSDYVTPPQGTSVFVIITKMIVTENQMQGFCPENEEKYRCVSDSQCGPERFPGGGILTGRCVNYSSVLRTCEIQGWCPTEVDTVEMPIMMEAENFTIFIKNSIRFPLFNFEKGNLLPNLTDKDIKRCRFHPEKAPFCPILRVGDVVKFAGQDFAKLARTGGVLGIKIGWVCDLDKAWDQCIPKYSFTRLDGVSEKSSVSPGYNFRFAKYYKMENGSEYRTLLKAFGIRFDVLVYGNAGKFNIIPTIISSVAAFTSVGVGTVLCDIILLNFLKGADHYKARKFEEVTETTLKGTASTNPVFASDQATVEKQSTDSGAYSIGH
Description: P2X3/P2X2/3 FLIPR (Fluorometric Imaging Plate Reader) Assay, P2X3. The conditions noted are these: CHO-K1 cells transfected with rat P2X3; agonist α,β-meATP 1 μM; Table 1; read-out: P2X3 pKi (converted). The experiment is classed as cell-based. Here is the method: (§1) P2X3/P2X2/3 FLIPR (Fluorometric Imaging Plate Reader) Assay
(§2) CHO-K1 cells were transfected with cloned rat P2X3 or human P2X2/3 receptor subunits and passaged in flasks. 18-24 hours before the FLIPR experiment, cells were released from their flasks, centrifuged, and resuspended in nutrient medium at 2.5×10^5 cells/ml. The cells were aliquoted into black-walled 96-well plates at a density of 50,000 cells/well and incubated overnight in 5% CO2 at 37° C. On the day of the experiment, cells were washed in FLIPR buffer (calcium- and magnesium-free Hank's balanced salt solution, 10 mM HEPES, 2 mM CaCl2, 2.5 mM probenecid; FB). Each well received 100 μl FB and 100 μl of the fluorescent dye Fluo-3 AM [2 μM final conc.]. After a 1 hour dye loading incubation at 37° C., the cells were washed 4 times with FB, and a final 75 μl/well FB was left in each well.
(§3) Test compounds (dissolved in DMSO at 10 mM and serially diluted with FB) or vehicle were added to each well (25 μl of a 4× solution) and allowed to equilibrate for 20 minutes at room temperature. The plates were then placed in the FLIPR and a baseline fluorescence measurement (excitation at 488 nm and emission at 510-570 nm) was obtained for 10 seconds before a 100 μl/well agonist or vehicle addition. The agonist was a 2× solution of α,β-meATP producing a final concentration of 1 μM (P2X3) or 5 μM (P2X2/3). Fluorescence was measured for an additional 2 minutes at 1 second intervals after agonist addition. A final addition of ionomycin (5 μM, final concentration) was made to each well of the FLIPR test plate to establish cell viability and maximum fluorescence of dye-bound cytosolic calcium. Peak fluorescence in response to the addition of α,β-meATP (in the absence and presence of test compounds) was measured and inhibition curves generated using nonlinear regression. PPADS, a standard P2X antagonist, was used as a positive control.

A further experiment deals with T2, human P2X2/3 receptor (Homo sapiens, UniProt P56373+Q9UBL9).
T2 construct: expressed in transfected cells; host or cells: CHO-K1
T2 sequence (Q9UBL9 1-471): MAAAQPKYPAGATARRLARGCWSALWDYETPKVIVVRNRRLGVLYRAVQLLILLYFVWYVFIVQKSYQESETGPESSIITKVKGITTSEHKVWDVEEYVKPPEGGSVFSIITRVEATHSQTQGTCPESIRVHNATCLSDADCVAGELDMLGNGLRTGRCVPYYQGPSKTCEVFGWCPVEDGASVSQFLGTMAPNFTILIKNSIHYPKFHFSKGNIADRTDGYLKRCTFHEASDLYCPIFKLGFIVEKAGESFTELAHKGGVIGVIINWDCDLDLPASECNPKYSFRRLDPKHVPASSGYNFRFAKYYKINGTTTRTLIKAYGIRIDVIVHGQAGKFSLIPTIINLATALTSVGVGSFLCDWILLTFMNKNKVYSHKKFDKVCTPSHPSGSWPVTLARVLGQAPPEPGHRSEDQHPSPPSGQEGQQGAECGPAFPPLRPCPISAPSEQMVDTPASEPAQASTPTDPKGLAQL
T2 sequence (P56373 1-397): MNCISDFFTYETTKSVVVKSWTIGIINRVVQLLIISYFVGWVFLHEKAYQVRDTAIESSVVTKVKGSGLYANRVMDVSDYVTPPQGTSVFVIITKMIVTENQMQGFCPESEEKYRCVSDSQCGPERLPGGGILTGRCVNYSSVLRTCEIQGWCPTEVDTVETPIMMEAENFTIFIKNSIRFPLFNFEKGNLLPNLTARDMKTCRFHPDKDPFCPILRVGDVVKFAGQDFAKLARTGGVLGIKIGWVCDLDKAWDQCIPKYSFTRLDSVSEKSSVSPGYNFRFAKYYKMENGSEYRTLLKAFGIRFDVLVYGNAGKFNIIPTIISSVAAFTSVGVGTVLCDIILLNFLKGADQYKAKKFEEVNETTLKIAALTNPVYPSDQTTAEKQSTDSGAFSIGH
Description: P2X3/P2X2/3 FLIPR (Fluorometric Imaging Plate Reader) Assay, P2X2/3. Type of experiment: cell-based. The conditions noted are these: CHO-K1 cells transfected with human P2X2/3; agonist α,β-meATP 5 μM; Table 1; read-out: P2X2/3 pKi (converted). Here is the method:
as §1, §2, §3

Regarding `COCC(C)NC(=O)c1cc(-c2ccc(C)cc2)cc(-n2ccnn2)c1` (stereo not drawn) [Compound 1, 4′-Methyl-5-[1,2,3]triazol-1-yl-biphenyl-3-carboxylic acid (2-methoxy-1-methyl-ethyl)-amide], on rat P2X3 receptor, the Ki is 1820 nM.
For `COCC(C)NC(=O)c1cc(-c2ccc(C)cc2)cc(-n2cncn2)c1` (stereo not drawn) [Compound 2, 4′-Methyl-5-[1,2,4]triazol-1-yl-biphenyl-3-carboxylic acid (2-methoxy-1-methyl-ethyl)-amide], the Ki at rat P2X3 receptor is 1450 nM; at human P2X2/3 receptor, 10200 nM.
For `COCC(C)NC(=O)c1cc(-c2ccc(C)cc2)cc(-n2nccn2)c1` (stereo not drawn) [Compound 3, 4′-Methyl-5-[1,2,3]triazol-2-yl-biphenyl-3-carboxylic acid (2-methoxy-1-methyl-ethyl)-amide], at rat P2X3 receptor, the Ki is 2950 nM.
With `Cc1ccc(-c2cc(C(=O)NC(C)c3cnccn3)cc(-c3nnc4ccccn34)c2)c(F)c1` (stereo not drawn) [Compound 4, 2′-Fluoro-4′-methyl-5-[1,2,4]triazolo[4,3-a]pyridin-3-yl-biphenyl-3-carboxylic acid (1-pyrazin-2-yl-ethyl)-amide], the results for the Ki on rat P2X3 receptor and at human P2X2/3 receptor were 437 nM and 1230 nM, respectively.
`COCC(C)NC(=O)c1cc(-c2ccc(C)cc2)cc(-n2nncc2C)c1` (stereo not drawn) [Compound 5, 4′-Methyl-5-(5-methyl-[1,2,3]triazol-1-yl)-biphenyl-3-carboxylic acid (2-methoxy-1-methyl-ethyl)-amide]: the figures for the Ki on rat P2X3 receptor and on human P2X2/3 receptor were 603 nM and 2820 nM, respectively.
For `COC[C@@H](C)NC(=O)c1cc(-c2ccc(C)cc2)cc(-n2nncc2C)c1` [Compound 6, 4′-Methyl-5-(5-methyl-[1,2,3]triazol-1-yl)-biphenyl-3-carboxylic acid ((R)-2-methoxy-1-methyl-ethyl)-amide], the Ki on rat P2X3 receptor is 269 nM; at human P2X2/3 receptor, 2040 nM.
On the same counts, the results for `Cc1ccc(-c2cc(C(=O)NC(C)c3cnccn3)cc(-n3nncc3C)c2)cc1` (stereo not drawn) [Compound 7, 4′-Methyl-5-(5-methyl-[1,2,3]triazol-1-yl)-biphenyl-3-carboxylic acid (1-pyrazin-2-yl-ethyl)-amide] are 3.72 nM and 191 nM.
For `Cc1ccc(-c2cc(C(=O)N[C@@H](C)CO)cc(-n3nncc3C(C)C)c2)cc1` [Compound 8, 5-(5-Isopropyl-[1,2,3]triazol-1-yl)-4′-methyl-biphenyl-3-carboxylic acid ((S)-2-hydroxy-1-methyl-ethyl)-amide] the same measures were 3.72 nM and 309 nM.
For `COCC(C)NC(=O)c1cc(-c2ccc(C)cc2)cc(-n2nncc2C(C)C)c1` (stereo not drawn) [Compound 9, 5-(5-Isopropyl-[1,2,3]triazol-1-yl)-4′-methyl-biphenyl-3-carboxylic acid (2-methoxy-1-methyl-ethyl)-amide] the same measures were 18.6 nM and 501 nM.
As to `COC[C@@H](C)NC(=O)c1cc(-c2ccc(C)cc2)cc(-n2nncc2C(C)C)c1` [Compound 10, 5-(5-Isopropyl-[1,2,3]triazol-1-yl)-4′-methyl-biphenyl-3-carboxylic acid ((R)-2-methoxy-1-methyl-ethyl)-amide], the Ki on rat P2X3 receptor was 7.41 nM; on human P2X2/3 receptor, 324 nM.
As for `Cc1ccc(-c2cc(C(=O)NC(C)CO)cc(-n3nncc3C(C)C)c2)cc1` (stereo not drawn) [Compound 11, 5-(5-Isopropyl-[1,2,3]triazol-1-yl)-4′-methyl-biphenyl-3-carboxylic acid (2-hydroxy-1-methyl-ethyl)-amide], the Ki on rat P2X3 receptor was 5.25 nM; on human P2X2/3 receptor, 257 nM.
On the same counts, the results for `Cc1ccc(-c2cc(C(=O)NC(C)c3cnccn3)cc(-n3nncc3C(C)C)c2)cc1` (stereo not drawn) [Compound 12, 5-(5-Isopropyl-[1,2,3]triazol-1-yl)-4′-methyl-biphenyl-3-carboxylic acid (1-pyrazin-2-yl-ethyl)-amide] are 7.94 nM and 31.6 nM.
On the same counts, the results for `Cc1ccc(-c2cc(C(=O)N[C@@H](C)CO)cc(-n3nncc3C)c2)cc1` [Compound 13, 4′-Methyl-5-(5-methyl-[1,2,3]triazol-1-yl)-biphenyl-3-carboxylic acid ((S)-2-hydroxy-1-methyl-ethyl)-amide] are 75.9 nM and 8130 nM.
On to `COCC(C)NC(=O)c1cc(-c2ccc(C)cc2)cc(-n2ncnc2C(C)C)c1` (stereo not drawn) [Compound 14, 5-(5-Isopropyl-[1,2,4]triazol-1-yl)-4′-methyl-biphenyl-3-carboxylic acid (2-methoxy-1-methyl-ethyl)-amide], for which the results for the Ki at rat P2X3 receptor and at human P2X2/3 receptor were 12 nM and 1020 nM, respectively.
`COC[C@@H](C)NC(=O)c1cc(-c2ccc(C)cc2)cc(-n2nc(C)nc2C(C)C)c1` [Compound 27, 5-(5-Isopropyl-3-methyl-[1,2,4]triazol-1-yl)-4′-methyl-biphenyl-3-carboxylic acid ((R)-2-methoxy-1-methyl-ethyl)-amide]: the Ki at rat P2X3 receptor was 100 nM.
On the same count and under the same terms, under `CCn1cnnc1-c1cc(C(=O)N[C@@H](C)CO)cc(-c2ccc(C)cc2)c1` [Compound 42, 5-(4-Ethyl-4H-[1,2,4]triazol-3-yl)-4′-methyl-biphenyl-3-carboxylic acid ((S)-2-hydroxy-1-methyl-ethyl)-amide] stands 117 nM; under `Cc1ccc(-c2cc(C(=O)NC3CC3)cc(-n3ncnc3C)c2)nc1` [Compound 68, N-Cyclopropyl-3-(5-methyl-pyridin-2-yl)-5-(5-methyl-[1,2,4]triazol-1-yl)-benzamide], 170 nM.
Still for that read-out and setting: then `Cc1ccc(-c2cc(C(=O)N[C@@H](C)CO)cc(-n3ncnc3CC(F)F)c2)nc1` [Compound 146, 3-[5-(2,2-Difluoro-ethyl)-[1,2,4]triazol-1-yl]-N-((S)-2-hydroxy-1-methyl-ethyl)-5-(5-methyl-pyridin-2-yl)-benzamide], with 17.8 nM; and `COCCc1nc(C)nn1-c1cc(C(=O)NCc2cnc(C)cn2)cc(-c2ccc(C)cn2)c1` [Compound 154, 3-[5-(2-Methoxy-ethyl)-3-methyl-[1,2,4]triazol-1-yl]-N-(5-methyl-pyrazin-2-ylmethyl)-5-(5-methyl-pyridin-2-yl)-benzamide], with 151 nM.
Still for that read-out and setting: then `Cc1ccc(-c2cc(C(=O)N[C@@H](C)CO)cc(-n3ncnc3C(F)(F)F)c2F)nc1` [Compound 165, 4-Fluoro-N-((S)-2-hydroxy-1-methyl-ethyl)-3-(5-methyl-pyridin-2-yl)-5-(5-trifluoromethyl-[1,2,4]triazol-1-yl)-benzamide], with 74.1 nM.
Turning to `Cc1ccc(-c2cc(C(=O)NC(C)c3cnccn3)cc(-n3ncnc3C(F)(F)F)c2F)nc1` (stereo not drawn) [Compound 170, 4-Fluoro-3-(5-methyl-pyridin-2-yl)-N-(1-pyrazin-2-yl-ethyl)-5-(5-trifluoromethyl-[1,2,4]triazol-1-yl)-benzamide], the Ki at rat P2X3 receptor is 3.72 nM.

Source of the values: patent US8440708B2, “Triazole-substituted arylamides as P2X3 and P2X2/3 antagonists” (Roche Palo Alto LLC, priority 2007, dated 2013).
